The text below walks through data of ChEMBL document CHEMBL1150927, “Antineoplastic agents. 398. Isolation and structure elucidation of cephalostatins 18 and 19” (1998).

In brackets after ≈: the same amount, converted by molar mass. Some results are limits rather than exact numbers.

Type in all cases: functional
Assay [1] in a line: Growth inhibition of human NCI60 cells.
For another assay, the system named is KM-20L2. Put plainly: Growth inhibition of human KM20L2 cells.
The test system of another assay is SK-MEL-5. The experiment in a line: Growth inhibition of human SK-MEL-5 cells.
A further assay has as its system A498. The experiment in a line: Growth inhibition of human A498 cells.
For a further assay, the system named is NCI-H460. The experiment in a line: Growth inhibition of human NCI-H460 cells.
For a further assay, the system named is P388. Put plainly: Cytotoxicity against mouse P388 cells. Particulars: read-out: ED50 (the source's name).
The subject of the next assay is OVCAR-3. The experiment in a line: Growth inhibition of human OVCAR-3 cells.
The next assay relates to SF-295. The experiment in a line: Growth inhibition of human SF295 cells.

In assay [1], `C[C@@H]1[C@]2(O[C@H]3C=C4[C@@H]5CC[C@H]6Cc7nc8c(nc7C[C@]6(C)[C@H]5C[C@@H](O)[C@]4(C)[C@]31O)C[C@@H]1CC[C@H]3C4=CC[C@@H]5[C@H](C)[C@@]6(OC[C@]45C(=O)C[C@@H]3[C@@]1(C)C8)OC(C)(C)C[C@H]6O)O[C@](C)(CO)C[C@H]2O` [CEPHALOSTATIN 1] displayed a GI50 of 2.2 nM.

`CO[C@H]1c2nc3c(nc2C[C@@H]2CC[C@H]4C5=C[C@@H]6O[C@]7(O[C@](C)(CO)C[C@H]7O)[C@@H](C)[C@]6(O)[C@@]5(C)[C@H](O)C[C@@H]4[C@]21C)C[C@@]1(C)[C@@H](CC[C@H]2C4=CC[C@@H]5[C@H](C)[C@@]6(OC[C@]45C(=O)C[C@@H]21)OC(C)(C)C[C@H]6O)C3` [CEPHALOSTATIN 18]: the GI50 in the assay on KM-20L2 was under 1 ng/mL; in the assay on SK-MEL-5, under 1 ng/mL; in the assay on A498 it was under 1 ng/mL; with NCI-H460, under 1 ng/mL; in assay [1] it was 21.7 nM; with OVCAR-3, under 1 ng/mL. For the same molecule, the 50% growth inhibitory concentration (GI50) with SF-295 is under 1 ng/mL. The EC50 in the assay on P388 came to 4.3 ng/mL (≈ 4.57 nM).

On to `CO[C@H]1c2nc3c(nc2C[C@@H]2CC[C@H]4C5=CC[C@@H]6[C@H](C)[C@@]7(OC[C@]56C(=O)C[C@@H]4[C@]21C)OC(C)(C)C[C@H]7O)C[C@@]1(C)[C@@H](CC[C@H]2C4=C[C@@H]5O[C@]6(O[C@](C)(CO)C[C@H]6O)[C@@H](C)[C@]5(O)[C@@]4(C)[C@H](O)C[C@@H]21)C3` [CEPHALOSTATIN 19], for which the GI50 with KM-20L2 was under 1 ng/mL; in the assay with SK-MEL-5, under 1 ng/mL; in the assay on A498 it was under 1 ng/mL; with NCI-H460, under 1 ng/mL; in assay [1], 16.6 nM; with OVCAR-3 it was under 1 ng/mL. Besides, the GI50 in the assay on SF-295 is under 1 ng/mL. In addition, the EC50 in the assay on P388 came to 7.4 ng/mL (≈ 7.86 nM).
